Laboratory results as given in patent US6861524B2, “Acyl and sulfonyl derivatives of 6,9-disubstituted 2-(trans-1,4-diaminocyclohexyl)-purines and their use as antiproliferative agents” (Aventis Pharmaceuticals Inc., priority 2000, dated 2005).
Read-outs that look alike come from different tables or passages of the source.

What was measured:
[1] = biological target: cdk4/cyclin D1 (Homo sapiens, UniProt P11802); experiment: Cyclin-dependent kinase assay, cdk4/cyclin D1 (GST-pRb substrate); format: biochemical
Sequence of cdk4/cyclin D1 (P11802 whole entry): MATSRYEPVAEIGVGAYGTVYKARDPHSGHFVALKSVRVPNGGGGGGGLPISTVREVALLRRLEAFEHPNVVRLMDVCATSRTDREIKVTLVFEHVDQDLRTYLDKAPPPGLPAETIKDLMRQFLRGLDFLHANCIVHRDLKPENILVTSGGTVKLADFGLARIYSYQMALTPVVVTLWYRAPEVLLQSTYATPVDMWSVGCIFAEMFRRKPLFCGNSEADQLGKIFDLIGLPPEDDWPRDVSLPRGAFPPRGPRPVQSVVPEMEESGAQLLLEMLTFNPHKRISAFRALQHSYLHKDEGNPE
Sequence of cdk4/cyclin D1 (P24385 whole entry partner): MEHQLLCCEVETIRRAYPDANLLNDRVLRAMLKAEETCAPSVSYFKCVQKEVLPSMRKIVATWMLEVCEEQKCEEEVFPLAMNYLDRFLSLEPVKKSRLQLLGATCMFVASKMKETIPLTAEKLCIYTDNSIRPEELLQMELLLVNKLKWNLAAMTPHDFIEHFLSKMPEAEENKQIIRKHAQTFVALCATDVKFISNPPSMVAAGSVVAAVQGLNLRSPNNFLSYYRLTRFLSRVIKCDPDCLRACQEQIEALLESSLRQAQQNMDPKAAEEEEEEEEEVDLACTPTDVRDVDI

[2] = system: MDA-MB-435; experiment: In vitro proliferation assay (MTT), MDA-MB-435; format: cell-based, human; details: mean (SD, n) where given, read-out: MB-435 Breast (IC50 μM)
Description: (§1) The proliferation of tumor cells can be measured using a tetrazolium salt-based assay known as the MTT (3-[4,5-Dimethylthiazol-2-yl]-2,5-diphenyltetrazolium bromide) assay. […] For the assay, the cell lines are plated onto 96 well plates at 1000 to 2500 cells/well (depending on the properties of the individual cell lines), left to attach and recover overnight. […] After 3 days, the cells are incubated with MTT dye (3-[4,5-Dimethylthiazol-2-yl]-2,5-diphenyltetrazolium bromide, Sigma #M5655, 10 mg/ml in Hank's Buffered Saline) to estimate the amount of live cells remaining vs. concentration for the test compounds. […] The MTT and culture medium is then removed from the cultures and 200 μl of DMSO is added to solubilize the dye from the cell layer. The absorbance at 570 nm is determined for each culture using a Spectramax plate reader (Molecular Devices).
(§2) IC50s were determined from the raw data from either the MTT or SRB assays.
(§3) All of the cell lines were obtained from American Type Tissue Collection, with the ATCC accession number in parentheticals. MCF-7 and MDA-MB-231 cells were grown in improved minimum essential medium (Biofluids) without phenol red, supplemented with 5% fetal bovine serum, 0.01 mg/ml gentamicin and 3 mM L-glutamine.

[3] = system: HL-60; experiment: In vitro proliferation assay (MTT), HL-60; format: cell-based, human; details: read-out: HL-60 Leuk. (IC50 μM)
Description: (§4) The proliferation of tumor cells can be measured using a tetrazolium salt-based assay known as the MTT (3-[4,5-Dimethylthiazol-2-yl]-2,5-diphenyltetrazolium bromide) assay. The proliferation test is performed essentially as described by Carmichael et al., Cancer Res. 47: 936-942, 1987. For the assay, the cell lines are plated onto 96 well plates at 1000 to 2500 cells/well (depending on the properties of the individual cell lines), left to attach and recover overnight. […] After 3 days, the cells are incubated with MTT dye (3-[4,5-Dimethylthiazol-2-yl]-2,5-diphenyltetrazolium bromide, Sigma #M5655, 10 mg/ml in Hank's Buffered Saline) to estimate the amount of live cells remaining vs. concentration for the test compounds. Specifically, MTT solution is added to a final concentration of […] and the plates incubated at 37 C for 2 to 4 hr. The MTT and culture medium is then removed from the cultures and 200 μl of DMSO is added to solubilize the dye from the cell layer. The absorbance at 570 nm is determined for each culture using a Spectramax plate reader (Molecular Devices).
as §2
(§5) All of the cell lines were obtained from American Type Tissue Collection, with the ATCC accession number in parentheticals. […]

[4] = system: Jurkat; experiment: In vitro proliferation assay (MTT), Jurkat; format: cell-based, human; details: read-out: Jurkat Leuk. (IC50 μM)
Description: as §4, §2, §5

[5] = system: PC-3; experiment: In vitro proliferation assay (MTT), PC-3; format: cell-based, human; details: MTT assay; mean (SD, n) where given; read-out: PC-3 Prostate (IC50 μM)
Description: as §1, §2, §3

[6] = system: PC-3 human prostate tumors; experiment: PC-3 human prostate tumor xenograft in nude mice; format: in vivo; details: Table 5, control 1308 ± 852
Description: (§6) Antitumor efficacy is assessed using two subcutaneous human tumor xenograft models. The studies are performed using conventional assay techniques. Briefly, HL-60 (leukemia, 5×10^5 cells) and PC-3 (prostate, 5×10^6 cells) tumor cells are injected subcutaneously into nude mice (Cr1-CD1-Br-nu, Charles River Laboratory, Wilmington, Mass.). Dosing with compounds began when tumors reached 50 to 100 mm^3. The dose route/schedule for the test compounds is ip/q1d (5×/wk). The test doses are set based on the maximum tolerated dose (MTD). […] The test doses for the efficacy studies are set at ⅓rd the MTD (low dose) and the MTD (high dose). The results are shown in Tables 4 and 5 (HL-60, leukemia) (PC-3, prostate cancer). The length of the treatment phase is dependent on the tumor growth rate for the two models. This treatment phase is typically about 3 weeks for the HL-60 model and about 5 weeks for the PC-3 model. […] Dosing with flavopiridol is for the same time frame as for the experimental compounds in both xenograft models. Tumor volume (twice weekly) and body weights (once weekly) are monitored throughout the course of the treatment phase of the experiment. Tumor sizes are measured by external caliper measurements of protruding tumor. Volumes are calculated using the following formula: volume=½ (a×b2), where b is the smaller of two perpendicular diameters.

[7] = system: HL-60 human leukemia; experiment: HL-60 human leukemia xenograft in nude mice; format: in vivo; details: Table 5, control 8341 ± 5355
Description: as §6

[8] = biological target: cdk2/cyclin E (Homo sapiens, UniProt P24941); experiment: Cyclin-dependent kinase assay, cdk2/cyclin E (GST-pRb substrate); details: read-out: CDK2 IC50; inhibition of cyclin E/CDK 2 enzyme activity
Description: (§7) The IC50 values for cdk1/cyclin B, cdk2/cyclin E, and cdk4/cyclin D1 inhibition are determined using the following methods:
The cdk2 sequence (accession number X62071) is amplified by PCR and cloned into the SpeI and XhoI sites of pFASTBAC1 (Life Technologies). […] This primer would anneal in the 3′ untranslated sequence.
The cyclin E sequence (accession number M73812) is amplified by PCR and cloned into the XbaI and XhoI sites of pFASTBAC1 (Life Technologies).
(§8) The cDNA for each of the cyclin-dependent kinases (CDK) and the corresponding cyclins are cloned into the baculovirus expression vector, pFASTBAC1 (Life Technologies). The sequences of each of the constructs are confirmed by automated fluorescent DNA sequencing according to the manufacture's protocol (Perkin Elmer/Applied Biosystems Inc).
(§9) The insect cell (Sf9) expression is optimized for each of the CDK/cyclin pairs according to the manufacturer's protocols (Life Technologies).
(§10) The viruses are added to the cells and the culture is incubated at 27° C. for the desired time. The cells are harvested by centrifugation at 3000 rpm for 10 minutes. The cells are snap frozen on dry ice and stored at −80° C.
(§11) Cell extracts are made following a standard procedure. The cell pellet is resuspended in lysis buffer (50 mM HEPES, pH 8.0, 10 mM MgCl2, 1 mM DTT, 2.5 mM EGTA, 1 mM EDTA, 10 mM β-glycerophosphate, 1 mM sodium vanadate, 1 mM sodium fluoride, 1×Protease inhibitor cocktail). The cells are lysed using the microfluidizer (Microfluidics) for 20 minutes. Cell debris is removed by centrifugation at 100,000×g. The cell extracts are aliquoted in 1 ml aliquots, frozen on dry ice, and stored at −80° C.
The kinase reactions are performed following a standard procedure. […]
The transformed bacteria are grown overnight to saturation, then diluted in YT broth and incubated at 37° C. for 2 h. […] The beads are washed with kinase buffer and then quantitated of Coomassie blue-stained proteins separated by SDS-PAGE using a protein standard of known concentration.

[9] = biological target: cdk1/cyclin B (Homo sapiens, UniProt P06493); experiment: Cyclin-dependent kinase assay, cdk1/cyclin B (Histone H1 substrate); details: read-out: CDK1 IC50; inhibition of cyclin B/CDK 1 enzyme activity
Sequence of cdk1/cyclin B (P06493 whole entry): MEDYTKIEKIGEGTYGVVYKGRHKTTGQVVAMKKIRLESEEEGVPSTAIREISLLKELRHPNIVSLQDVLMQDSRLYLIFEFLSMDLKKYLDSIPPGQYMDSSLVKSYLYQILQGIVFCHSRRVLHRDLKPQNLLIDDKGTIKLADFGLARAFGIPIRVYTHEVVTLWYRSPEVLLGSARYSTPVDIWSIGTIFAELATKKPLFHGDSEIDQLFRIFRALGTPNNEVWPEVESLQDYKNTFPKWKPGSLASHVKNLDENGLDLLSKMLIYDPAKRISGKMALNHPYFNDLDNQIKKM
Sequence of cdk1/cyclin B (P14635 whole entry partner): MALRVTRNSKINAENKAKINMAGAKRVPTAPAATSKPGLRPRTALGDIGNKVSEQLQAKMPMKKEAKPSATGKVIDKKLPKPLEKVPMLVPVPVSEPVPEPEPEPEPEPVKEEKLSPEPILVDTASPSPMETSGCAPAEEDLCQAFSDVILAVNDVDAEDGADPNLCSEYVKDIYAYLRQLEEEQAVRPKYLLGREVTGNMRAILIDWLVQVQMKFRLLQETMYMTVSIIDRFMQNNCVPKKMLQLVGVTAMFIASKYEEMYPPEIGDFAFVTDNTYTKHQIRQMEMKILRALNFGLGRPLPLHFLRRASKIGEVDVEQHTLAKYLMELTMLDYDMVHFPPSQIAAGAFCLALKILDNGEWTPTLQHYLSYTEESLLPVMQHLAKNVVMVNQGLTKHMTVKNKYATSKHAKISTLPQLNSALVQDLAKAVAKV
Description: as §7
The cdk1 sequence (accession number Y00272) is amplified by PCR and cloned into the BamHI and SalI sites of pFASTBAC1 (Life Technologies).
The cyclin B1 sequence (accession number M25753) is amplified by PCR and cloned into the BamHI and SalI sites of pFASTBAC1 (Life Technologies).
as §8, §9, §10, §11
The kinase reactions are performed following a standard procedure. The enzyme and inhibitor are diluted in kinase buffer (50 mM HEPES, pH 8.0, 10 mM MgCl2, 2.5 mM EGTA, 10 mM β-glycerophosphate, 1 mM sodium vanadate, 1 mM sodium fluoride, and 1 mM DTT) and pre-incubated for 30 minutes. […] The cdk1 enzyme activity is assayed using Histone H1 (Sigma) in the presence of 10 μM ATP for 30 min at room temperature. The reactions are terminated by the addition of 50 μL of 10 mM cold ATP to stop the reactions. The reactions are transferred to a pre-soaked 96-well multi-screen plate containing 30 μL of 100% TCA per well. After incubation for one hour at room temperature, the plates are washed twice with 200 μl of 20% TCA, followed by 200 μl of 10% TCA and finally with 200 μl of 5% TCA. After drying the plates at room temperature, the filter plates are placed in adapter plates (Packard) and 40 μl of Microscint-O® (Packard) is added to each well. Top Seal A film is used to cover the plates before counting in a Top Count Scintillation Counter.
The % remained activity of the indicated Cdk/cyclin kinase complex in the presence of inhibitor is calculated by the ratio of cpm in the presence of inhibitor to cpm in the absence of inhibitor (% Activity=vi/vo×100%).

[10] = system: NCI-H460; experiment: In vitro proliferation assay (MTT), NCI-H460; format: cell-based, human; details: read-out: H-460 Lung (IC50 μM)
Description: as §4, §2, §5

[11] = system: Colo-205; experiment: In vitro proliferation assay (MTT), Colo-205; format: cell-based; details: read-out: Colo-205 Colon (IC50 μM)
Description: as §4, §2

Substance	IC50 ([1]; inhibition of cyclin D1/CDK 4 enzyme activity)	IC50 [2]	IC50 [3]	IC50 [4]	IC50 [5]	PC-3 Mean Vol. ± SD ([6]; 1 mg/kg ip q1d 5x/wk)	PC-3 Mean Vol. ± SD ([6]; 3 mg/kg ip q1d 5x/wk)	HL60 Mean Vol. ± SD ([7]; 1 mg/kg ip q1d 5x/wk)	HL60 Mean Vol. ± SD ([7]; 3 mg/kg ip q1d 5x/wk)	IC50 [8]	IC50 [9]	IC50 [1]	IC50 [10]	IC50 [11]
trans-1-{4-[2-(4-Amino-cyclohexylamino)-9-cyclopentyl-9H-purin-6-ylamino]-piperidin-1-yl}-1-(4-trifluoromethyl-phenyl)-methanone dihydrochloride [Compound 3]	1.12 µM	0.25 µM	0.13 µM	0.22 µM	0.66 µM	671 ± 672	785 ± 473	6370 ± 4655	6092 ± 4278	0.048 µM	0.055 µM	–	–	–
trans-N^2-(4-Amino-cyclohexyl)-9-cyclohexyl-N^6-[1-(4-chloro-benzenesulfonyl)-piperidin-4-yl]-9H-purine-2,6-diamine dihydrochloride [Compound 108]	–	0.14 µM	–	–	0.43 µM	–	–	–	–	0.01 µM	0.007 µM	0.17 µM	0.29 µM	0.18 µM
